In ChEMBL document CHEMBL1201862, “PubChem BioAssay data set” (2004):
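Grown in 96-well plates, cells were treated for 48 hours with each compound at five concentrations. Insufficient inhibition: endpoint recorded as highest concentration tested. Abbreviation: GI50, concentration required for 50% inhibition of growth.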 Calls of active or inactive are those of the source. No stated cut-off is given here; in the data, active = GI50 up to about 1.1 µM and inactive = higher.

What was measured:
Test in all cases: NCI-60 cell line screen, 48 h
[1] = test system: Malme-3M
[2] = test system: EKVX
[3] = test system: SF-539
[4] = test system: HOP-92
[5] = test system: TK-10
[6] = test system: HT-29
[7] = test system: NCI-H23
[8] = test system: NCI-H460
[9] = test system: LOX IMVI
[10] = test system: RXF 393
[11] = test system: SF-268
[12] = test system: SF-295
[13] = test system: HOP-62
[14] = test system: SN12C
[15] = test system: HCT-116
[16] = test system: NCI-H522
[17] = test system: MOLT-4
[18] = test system: HCT-15
[19] = test system: SW-620
[20] = test system: SNB-75

With `CN(C)CCNC(=O)c1cccc2[nH]c(-c3ccncc3)nc12` the GI50 [1] was 1.91 µM (inactive), the GI50 [2] was 12.4 µM (inactive) and the GI50 [3] was 2.65 µM (inactive). For the same compound, the GI50 [4] was 6.82 µM (inactive), the GI50 [5] was 6.5 µM (inactive) and the GI50 [6] was 2.61 µM (inactive). For the same compound, the GI50 [7] was 8.39 µM (inactive), the GI50 [8] was 2.78 µM (inactive) and the GI50 [9] was 0.733 µM (active). The GI50 [10] was 5.58 µM (inactive), the GI50 [11] was 11.4 µM (inactive) and the GI50 [12] was 3.02 µM (inactive). The GI50 [13] was 18.7 µM (inactive), the GI50 [14] was 9.73 µM (inactive) and the GI50 [15] was 4.07 µM (inactive). For the same compound, the GI50 [16] was 1.88 µM (inactive), the GI50 [17] was 3.56 µM (inactive) and the GI50 [18] was 2.89 µM. The GI50 [19] was 3.19 µM (inactive) and the GI50 [20] was 7.33 µM (inactive).

For `O=S(=O)(CC(O)C(Cl)(Cl)Cl)NNc1ccccc1` (stereo not given), the GI50 [1] was > 100 µM (inactive), the GI50 [2] was > 100 µM (inactive) and the GI50 [3] was > 100 µM (inactive). The GI50 [4] was > 100 µM (inactive), the GI50 [5] was > 100 µM (inactive) and the GI50 [6] was > 100 µM (inactive). The GI50 [7] was > 100 µM (inactive), the GI50 [8] was 75.3 µM (inactive) and the GI50 [9] was > 100 µM (inactive). For the same compound, the GI50 [10] was > 100 µM (inactive), the GI50 [11] was > 100 µM (inactive) and the GI50 [12] was 80.7 µM (inactive). The GI50 [13] was > 100 µM (inactive), the GI50 [14] was > 100 µM (inactive) and the GI50 [15] was > 100 µM (inactive). The GI50 [16] was > 100 µM (inactive), the GI50 [17] was > 100 µM (inactive) and the GI50 [18] was 72.1 µM. For the same compound, the GI50 [19] was > 100 µM (inactive) and the GI50 [20] was > 100 µM (inactive).

With `COC(=O)/C=C1/OC(c2ccc(OC)cc2)=C(Cl)C1=O` the GI50 [1] was 16.2 µM (inactive), the GI50 [2] was 19.1 µM (inactive) and the GI50 [3] was 19.1 µM (inactive). The GI50 [4] was 23.1 µM (inactive), the GI50 [5] was 24.3 µM (inactive) and the GI50 [6] was 15.4 µM (inactive). The GI50 [7] was 17.6 µM (inactive), the GI50 [8] was 18.4 µM (inactive) and the GI50 [9] was 7.94 µM (inactive). The GI50 [10] was 10 µM (inactive), the GI50 [11] was 16.6 µM (inactive) and the GI50 [12] was 19.9 µM (inactive). For the same compound, the GI50 [13] was 20.6 µM (inactive), the GI50 [14] was 18.9 µM (inactive) and the GI50 [15] was 13.5 µM (inactive). For the same compound, the GI50 [16] was 14.6 µM (inactive), the GI50 [17] was 2.96 µM (inactive) and the GI50 [18] was 17.5 µM. The GI50 [19] was 12.4 µM (inactive) and the GI50 [20] was 17.9 µM (inactive).

In the case of `CN1CCc2c(sc3ncn(Nc4ccc(F)cc4)c(=N)c23)C1`, the GI50 [1] was > 100 µM (inactive), the GI50 [2] was > 100 µM (inactive) and the GI50 [3] was > 100 µM (inactive). For the same compound, the GI50 [4] was > 100 µM (inactive), the GI50 [5] was > 100 µM (inactive) and the GI50 [6] was > 100 µM (inactive). For the same compound, the GI50 [7] was > 100 µM (inactive), the GI50 [8] was > 100 µM (inactive) and the GI50 [9] was > 100 µM (inactive). The GI50 [10] was > 100 µM (inactive), the GI50 [11] was > 100 µM (inactive) and the GI50 [12] was > 100 µM (inactive). For the same compound, the GI50 [13] was > 100 µM (inactive), the GI50 [14] was > 100 µM (inactive) and the GI50 [15] was > 100 µM (inactive). The GI50 [16] was 65 µM (inactive), the GI50 [17] was > 100 µM (inactive) and the GI50 [18] was > 100 µM. For the same compound, the GI50 [19] was > 100 µM (inactive) and the GI50 [20] was > 100 µM (inactive).

For `CC(C)=CCC/C(C)=C/CC/C(C)=C/CCN(C)CCO`, the GI50 [1] was 3.54 µM (inactive), the GI50 [2] was 16.8 µM (inactive) and the GI50 [3] was 4.25 µM (inactive). The GI50 [4] was 3.32 µM (inactive), the GI50 [5] was 6 µM (inactive) and the GI50 [6] was 11.2 µM (inactive). For the same compound, the GI50 [7] was 11.6 µM (inactive), the GI50 [8] was 4.78 µM (inactive) and the GI50 [9] was 3.15 µM (inactive). For the same compound, the GI50 [10] was 7.59 µM (inactive), the GI50 [11] was 12.2 µM (inactive) and the GI50 [12] was 3.61 µM (inactive). For the same compound, the GI50 [13] was 6.78 µM (inactive), the GI50 [14] was 12.3 µM (inactive) and the GI50 [15] was 4.12 µM (inactive). The GI50 [16] was 6.61 µM (inactive), the GI50 [17] was 3.44 µM (inactive) and the GI50 [18] was 3.95 µM. For the same compound, the GI50 [19] was 3.58 µM (inactive) and the GI50 [20] was 7.43 µM (inactive).

With `COc1ccc(-c2cc(-c3ccco3)c(C#N)c(=O)[nH]2)cc1` the GI50 [1] was 29.8 µM (inactive), the GI50 [2] was > 100 µM (inactive) and the GI50 [3] was 15.8 µM (inactive). The GI50 [4] was > 100 µM (inactive), the GI50 [5] was 50.8 µM (inactive) and the GI50 [6] was > 100 µM (inactive). For the same compound, the GI50 [7] was 86.7 µM (inactive), the GI50 [8] was 35.1 µM (inactive) and the GI50 [9] was > 100 µM (inactive). For the same compound, the GI50 [10] was 45.1 µM (inactive), the GI50 [11] was 36.7 µM (inactive) and the GI50 [12] was 65 µM (inactive). The GI50 [13] was 15.7 µM (inactive), the GI50 [14] was 32.1 µM (inactive) and the GI50 [15] was 40.3 µM (inactive). The GI50 [16] was 20.3 µM (inactive), the GI50 [17] was > 100 µM (inactive) and the GI50 [18] was 57.7 µM. For the same compound, the GI50 [19] was > 100 µM (inactive) and the GI50 [20] was 18 µM (inactive).

In the case of `COC(=O)/C=C\C1C(C(=O)OC)C2(C(=O)OC)CCC1(C(=O)OC)N2` (stereo not given), the GI50 [1] was 5.98 µM (inactive), the GI50 [2] was 27.2 µM (inactive) and the GI50 [3] was 17.8 µM (inactive). The GI50 [4] was 4.81 µM (inactive), the GI50 [5] was 4.47 µM (inactive) and the GI50 [6] was 21.2 µM (inactive). For the same compound, the GI50 [7] was 18.7 µM (inactive), the GI50 [8] was 21.6 µM (inactive) and the GI50 [9] was 13.4 µM (inactive). For the same compound, the GI50 [10] was 7.21 µM (inactive), the GI50 [11] was 23.8 µM (inactive) and the GI50 [12] was 23.4 µM (inactive). The GI50 [13] was 18.1 µM (inactive), the GI50 [14] was 16.3 µM (inactive) and the GI50 [15] was 13.8 µM (inactive). For the same compound, the GI50 [16] was 0.681 µM (active), the GI50 [17] was 3.77 µM (inactive) and the GI50 [18] was 3.33 µM. For the same compound, the GI50 [19] was 3.13 µM (inactive) and the GI50 [20] was 18.5 µM (inactive).

With `CC(C)(C)N/N=C(\Cc1occc(=O)c1O)C(=O)Nc1ccc([N+](=O)[O-])cc1[N+](=O)[O-]` the GI50 [1] was > 100 µM (inactive), the GI50 [2] was 66.5 µM (inactive) and the GI50 [3] was > 100 µM (inactive). The GI50 [4] was > 100 µM (inactive), the GI50 [5] was > 100 µM (inactive) and the GI50 [6] was > 100 µM (inactive). The GI50 [7] was > 100 µM (inactive), the GI50 [8] was > 100 µM (inactive) and the GI50 [9] was > 100 µM (inactive). For the same compound, the GI50 [10] was > 100 µM (inactive), the GI50 [11] was > 100 µM (inactive) and the GI50 [12] was > 100 µM (inactive). For the same compound, the GI50 [13] was > 100 µM (inactive), the GI50 [14] was > 100 µM (inactive) and the GI50 [15] was > 100 µM (inactive). The GI50 [16] was > 100 µM (inactive), the GI50 [17] was > 100 µM (inactive) and the GI50 [18] was > 100 µM. For the same compound, the GI50 [19] was > 100 µM (inactive) and the GI50 [20] was > 100 µM (inactive).

For `CN(C)CCNc1ccc2nnn3c4ccc(O)cc4c(=O)c1c23`, the GI50 [1] was 5.05 µM (inactive), the GI50 [2] was 3.13 µM (inactive) and the GI50 [3] was 3.95 µM (inactive). The GI50 [4] was 4.59 µM (inactive), the GI50 [5] was 5.12 µM (inactive) and the GI50 [6] was 4.28 µM (inactive). The GI50 [7] was 3.75 µM (inactive), the GI50 [8] was 0.498 µM (active) and the GI50 [9] was 1.5 µM (inactive). For the same compound, the GI50 [10] was 1.68 µM (inactive), the GI50 [11] was 5.38 µM (inactive) and the GI50 [12] was 2.54 µM (inactive). The GI50 [13] was 1.39 µM (inactive), the GI50 [14] was 1.85 µM (inactive) and the GI50 [15] was 1.35 µM (inactive). The GI50 [16] was 3.12 µM (inactive), the GI50 [17] was 0.168 µM (active) and the GI50 [18] was 1.29 µM. The GI50 [19] was 1.09 µM (active) and the GI50 [20] was 9.57 µM (inactive).

`CC(C)=CCC[C@](C)(O)[C@H]1CC[C@]2(C)[C@@H]1[C@H](O)C[C@@H]1[C@@]3(C)CC[C@H](O[C@@H]4O[C@H](CO)[C@@H](O)[C@H](O)[C@H]4O)C(C)(C)[C@@H]3CC[C@]12C` [GINSENOSIDE RH2] was tested, and the GI50 [1] was 18.4 µM (inactive), the GI50 [2] was 22.7 µM (inactive) and the GI50 [3] was 22.2 µM (inactive). The GI50 [4] was 18.7 µM (inactive), the GI50 [5] was 21.4 µM (inactive) and the GI50 [6] was 15.5 µM (inactive). The GI50 [7] was 20.6 µM (inactive), the GI50 [8] was 16.6 µM (inactive) and the GI50 [9] was 29 µM (inactive). The GI50 [10] was 17 µM (inactive), the GI50 [11] was 15.8 µM (inactive) and the GI50 [12] was 23 µM (inactive). For the same compound, the GI50 [13] was 32.6 µM (inactive), the GI50 [14] was 16.7 µM (inactive) and the GI50 [15] was 26.2 µM (inactive). The GI50 [16] was 17.2 µM (inactive), the GI50 [17] was 17.1 µM (inactive) and the GI50 [18] was 17.5 µM. The GI50 [19] was 19.5 µM (inactive) and the GI50 [20] was 19.1 µM (inactive).
